According to patent US8247383B2, “Drug-carrier complexes and methods of use thereof” (The General Hospital Corporation, priority 1999, dated 2012):
Like-named read-outs stand apart in the source and are kept apart here. Values belong to the molecule of their own block, whether it stands above or below them. d = 2'-deoxy (DNA); r = 2'-OH (RNA)

Tests used:
[1] = cited from earlier work
[2] = Carrier biokinetics (3H-labeled carriers, blood); assay type: in vivo; settings: 1 mg/kg via tail vein, mice
Procedure: Unloaded carriers (Example 8) were labeled with tritium (^3H). Carriers were oxidized with periodate to produce aldehyde groups on the 3′-ribonucleotide base present in the structure, and reacted with [^3H] borohydride to introduce tritium into carrier core structure. Carriers were purified on Sephadex G-25 and injected at 1 mg/kg into normal outbred mice (males, 30 g) via tail vein. Blood samples were collected at different time points and counted. The blood half-lives were ca. 30 min and 10 hours for unprotected and PHF-protected carriers, respectively.

outbred mice [3] = assay: Carrier toxicity in vivo; settings: 100 mg/kg intravenously, observed for 30 days
Excerpt: Carrier toxicity in vivo.

outbred mice [4] = assay: Adduct toxicity in vivo; settings: observed for 30 days
Procedure: Adduct toxicity in vivo. […] Bis-intercalator content was one molecule per 6 base pairs of the nucleotide core. […] The adduct and free bis-intercalator were administered intravenously, as described above, into male outbred mice (30±2 g, n=4 per group) at 30 mg/kg by bis-intercalator. In a third group, unloaded carrier was injected at 100 mg/kg within 15 minutes after the administration of 30 mg/kg of bis-doxorubicin.

[5] = Lyophilization and reconstitution in PBS with membrane filtration; assay type: physicochemical; settings: one milligram by doxorubicin in 0.1 ml of 50 mM PBS, pH=7
Procedure: The adducts obtained as described in Examples 2 and 3 were used in a lyophilized form. Doxorubicin powder (Sigma Chemical Co., St. Louis, Mo.) and lyophilized “Doxorubicin for injection” were used as control preparations. Each of the four preparations, in the amount of one milligram by doxorubicin, were suspended in 0.1 ml of a 50 mM PBS, pH=7. […] The resultant solutions oligonucleotide-doxorubicin adduct solutions were filtered through […] PTFE membrane filters; doxorubicin was recovered in the filtrates with at least 98% yield (by adsorption at 470 nm).

[6] = test system: human epithelial cells (kidney, line 293); assay: Carrier and adduct toxicity in cell culture (Trypan Blue staining); assay type: cell-based; settings: control experiment, confluent and growing cultures
Procedure: Carrier toxicity in cell culture. Unloaded carriers (Example 7) were tested in near confluent culture of human epithelial cells (kidney, line 293, from ATCC #CRL 1573) in DMEM with 5% calf serum. Carriers were added to the cell culture at various concentrations, from 1 mg/ml to 1 mg/ml. Cell survival rate was determined by staining with Trypan Blue after a 16-hour incubation.
Adduct toxicity in cell culture. Doxorubicin-loaded carriers (Example 12) were tested in near confluent and growing cultures of human epithelial cells (kidney, line 293) in DMEM containing 5% calf serum. […] Cell survival rate was determined by staining with Trypan Blue after a 16-hour incubation.

[7] = Doxorubicin biodistribution (14C tissue radioactivity); assay type: in vivo, mice; settings: 0.3 mg/kg via tail vein, 20 hours after injection
Procedure: (^14C)doxorubicin-loaded carriers (Example 12) and free (^14C)doxorubicin (control) were injected into normal outbred mice (males, 30 g) via tail vein, at 0.3 mg/kg. Biodistribution was studied by measuring tissue radioactivity 20 hours after injection. Tissue samples were disintegrated, solubilized, mixed with a scintillation cocktail and counted on a scintillation counter.

[8] = assay type: physicochemical
Procedure: An oligonucleotide with arbitrarily chosen […] sequence, 5′CGTCGACGTCGAATATACGC (SEQ ID NO: 3), and a complementary 5′-amino modified oligonucleotide 5′GC GTA TAT TCG ACG TCG ACG (SEQ ID NO: 4) were purchased from a commercial vendor. To form a double stranded oligonucleotide, the single-stranded oligonucleotides were hybridized and lyophilized as described in Example 1. The resultant double stranded oligonucleotide was stable at ambient (25° C.) and body temperature (37° C.).

[9] = test system: antifluorescein rabbit IgG; assay: Steric protection: kinetics of fluorescein quenching by anti-fluorescein IgG; assay type: binding; settings: polymer chains positioned within 2 and 9 bases of fluorescein; 10-fold anti-fluorescein IgG, 20 mM PBS, pH=7.5
Procedure: To determine the degree of steric protection of the nucleotide core by polymer chains, a series of double-stranded oligonucleotides were synthesized. A model antigen (fluorescein) and a model protective chain (polyethyleneglycol) were positioned on the oligonucleotide at various distances. Then kinetics of fluorescein moiety interactions with fluorescence-quenching antifluorescein rabbit IgG (Molecular Probes, Oreg.) was determined to evaluate the degree of steric protection. The latter was investigated as a function of the distance between the antigen and the protective chain. Four 5′-amino modified oligonucleotides with the same sequence 5′-TTT-CTC-TCT-CTC-TCT-CTC-TCT-3′ (SEQ ID NO: 5) were obtained from a commercial source. […]
The resultant double-stranded oligonucleotides were purified by SEC HPLC and modified, through the 5′-aminogroup of the first strand, with N-hydroxysuccinimide ester of carboxy-polyethyleneglycol (MW=2 kDa and 20 kDa), and with N-hydroxysuccinimide ester of branched “PEG2” polyethyleneglycol (10 kDa). […] Fluorescein—antibody interaction was registered by quenching of the fluorescein fluorescence by the antibody. Fluorescence was registered at 515 nm (excitation at 490 nm). The kinetics of fluorescence quenching depended on the position of the fluorescein moiety relative to the polymer chain.

[10] = design: species or system mice; settings: mouse, in vivo, iv
Procedure: An arbitrarily chosen 5-amino modified 18-base phosphodiester oligonucleotide 5° […] (SEQ ID NO: 11), 0.11 mg, was modified with trace amount of ethylenediaminetraacetic anhydride and hybridized with (a) a complementary oligonucleotide, 5′[…] (SEQ ID NO: 12), and (b) analogous complementary oligonucleotide amino modified at both 5′ and 3′ ends and at positions 4, 9 and 15 (from 5′). The hybridized amino modified DSO was incubated with 1 ml of 10 mg/ml solution of N-hydroxycuccinimido-polyethyleneglycol, MW=10 kDa, at pH=8 for 8 hours. The products, PEG-modified double stranded oligonucleotides, were isolated by HPLC. Both PEG-modified and unmodified double stranded oligonucleotides were labeled with 111 in 0.5 M citrate buffer solution, pH=5.6. Labeled preparations were purified by SEC HPLC. Each was divided into 4 equal doses and administered intravenously to outbred mice (n=4 in each group, male, 31±2 g). Blood samples were taken immediately after injection, then at 0.25, 0.5, 1, 2, 4 and 8 hours.

Molecule: C[C@H](CNCCNC[C@@H](C)N1C(=O)c2cccc3cc([N+](=O)[O-])cc(c23)C1=O)N1C(=O)c2cccc3cc([N+](=O)[O-])cc(c23)C1=O [DMP 840]
solubility at physiological pH [1]: limited solubility

Molecule: unprotected carriers: double-stranded carrier from unmodified oligonucleotides SEQ ID NO: 7 and 8 (chain 1 ATGGCGCACGCTGGGAGA; chain 2 TCTCCCAGCGTGCGCCATC; chain 1: DNA, backbone and methylation of C not given here; chain 2: sugars from the 5' end d18 r1, all phosphodiester, methylation of C not given here)
blood half-life [2]: ca. 30 min

Molecule: PHF-protected carriers: amino modified double-stranded oligonucleotide (SEQ ID NO: 9/8) conjugated with 10 kDa PHF (chain 1 ATGGCGCACGCTGGGAGAC; chain 2 TCTCCCAGCGTGCGCCATC; sugars from the 5' end d18 r1, backbone and methylation of C not given here; amino modifications at positions 1, 2, 12, 19 of first strand, PHF polymer conjugated)
signs of toxicity (outbred mice [3]): None of the animals showed signs of toxicity
survival (outbred mice [3]; n=6): All animals survived
blood half-life [2]: ~10 h

Molecule: COc1cccc2c1C(=O)c1c(O)c3c(c(O)c1C2=O)C[C@@](O)(C(C)=O)C[C@@H]3O[C@H]1C[C@H](NCc2ccc(CN[C@H]3C[C@H](O[C@H]4C[C@](O)(C(C)=O)Cc5c(O)c6c(c(O)c54)C(=O)c4c(OC)cccc4C6=O)O[C@@H](C)[C@H]3O)cc2)[C@H](O)[C@H](C)O1 [WP-631]
survival (outbred mice [4]; 30 mg/kg bis-doxorubicin, then unloaded carrier 100 mg/kg within 15 minutes): all animals survived
survival (outbred mice [4]; 30 mg/kg by bis-intercalator intravenously, n=4 per group): only one animal survived
solubility at physiological pH [1]: limited solubility

dissolution on suspending the preparation [5]: formed suspensions
label distribution to liver [7]: 3±0.6 % dose/g
label distribution to lung [7]: 4.6±1.6 % dose/g
label content in skeletal muscle ([7]; mean±standard deviation): 2±0.4 % dose/g
Molecule: COc1cccc2c1C(=O)c1c(O)c3c(c(O)c1C2=O)C[C@@](O)(C(=O)CO)C[C@@H]3O[C@H]1C[C@H](N)[C@H](O)[C@H](C)O1 [doxorubicin, Doxorubicin]
cytotoxic effects compared with doxorubicin-loaded carriers [6]: essentially the same cytotoxic effects
solubility at physiological pH [1]: limited solubility

Molecule: double stranded oligonucleotide: hybrid of 5′CGTCGACGTCGAATATACGC (SEQ ID NO: 3) and complementary 5′-amino modified SEQ ID NO: 4 (chain 1 CGTCGACGTCGAATATACGC; chain 2 GCGTATATTCGACGTCGACG; complementary strand carries 5'-amino modification, further chemistry not given here)
stability of double stranded oligonucleotide [8]: stable

Molecule: 2 kDa polymer: fluorescein-labeled double-stranded oligonucleotide (SEQ ID NO: 5/6) modified at 5′-amino group with 2 kDa polyethyleneglycol (chain 1 TTTCTCTCTCTCTCTCTCTCT; chain 2 AGAGAGAGAGAGAGAGAGAAAA; fluorescein, 2 kDa PEG, chemistry not fully specified)
decrease of the kinetic constant of fluorescein-antibody interaction [9]: 20%

Molecule: unmodified double stranded oligonucleotides: labeled SEQ ID NO: 11 hybridized with complementary SEQ ID NO: 12 (chain 1 CGTCGACGTCGAATATACGC; chain 2 GCGTATATTCGACGTCGACG; DNA, phosphodiester; one strand carries an unspecified label)
blood half-life [10]: 0.2 ± 0.083 h

Molecule: 20 kDa polymer: fluorescein-labeled double-stranded oligonucleotide (SEQ ID NO: 5/6) modified at 5′-amino group with 20 kDa polyethyleneglycol (chain 1 TTTCTCTCTCTCTCTCTCTCT; chain 2 AGAGAGAGAGAGAGAGAGAAAA; 5'-amino linked 20 kDa PEG, fluorescein on an internal base, further chemistry not given here)
decrease of the kinetic constant of fluorescein-antibody interaction [9]: 80%
